Assay results from ChEMBL document CHEMBL1139259, “Molecular modeling, synthesis, and activity studies of novel biaryl and fused-ring BACE1 inhibitors” (Bioorg Med Chem Lett, 2009).

Key:
[1] = biological target: T1, Beta-secretase 2 (Homo sapiens, UniProt Q9Y5Z0); test: Inhibition of BACE2 expressed in human 293T cells; assay type: cell-based
T1 sequence (Q9Y5Z0 whole entry): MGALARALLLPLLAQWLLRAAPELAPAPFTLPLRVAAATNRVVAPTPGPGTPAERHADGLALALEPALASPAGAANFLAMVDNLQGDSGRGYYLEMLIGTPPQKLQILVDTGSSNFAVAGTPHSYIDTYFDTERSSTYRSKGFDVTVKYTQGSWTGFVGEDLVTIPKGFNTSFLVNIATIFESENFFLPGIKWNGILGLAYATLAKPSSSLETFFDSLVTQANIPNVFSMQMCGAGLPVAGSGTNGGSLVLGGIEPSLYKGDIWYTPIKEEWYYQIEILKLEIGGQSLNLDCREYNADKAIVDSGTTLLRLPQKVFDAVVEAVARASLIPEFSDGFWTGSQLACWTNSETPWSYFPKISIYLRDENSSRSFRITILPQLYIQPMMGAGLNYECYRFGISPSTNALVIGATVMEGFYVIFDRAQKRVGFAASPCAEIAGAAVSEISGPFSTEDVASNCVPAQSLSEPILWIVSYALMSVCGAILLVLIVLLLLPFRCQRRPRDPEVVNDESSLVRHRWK

[2] = biological target: Beta-secretase 1 (Homo sapiens, UniProt P56817)
Sequence of Beta-secretase 1 (P56817 whole entry): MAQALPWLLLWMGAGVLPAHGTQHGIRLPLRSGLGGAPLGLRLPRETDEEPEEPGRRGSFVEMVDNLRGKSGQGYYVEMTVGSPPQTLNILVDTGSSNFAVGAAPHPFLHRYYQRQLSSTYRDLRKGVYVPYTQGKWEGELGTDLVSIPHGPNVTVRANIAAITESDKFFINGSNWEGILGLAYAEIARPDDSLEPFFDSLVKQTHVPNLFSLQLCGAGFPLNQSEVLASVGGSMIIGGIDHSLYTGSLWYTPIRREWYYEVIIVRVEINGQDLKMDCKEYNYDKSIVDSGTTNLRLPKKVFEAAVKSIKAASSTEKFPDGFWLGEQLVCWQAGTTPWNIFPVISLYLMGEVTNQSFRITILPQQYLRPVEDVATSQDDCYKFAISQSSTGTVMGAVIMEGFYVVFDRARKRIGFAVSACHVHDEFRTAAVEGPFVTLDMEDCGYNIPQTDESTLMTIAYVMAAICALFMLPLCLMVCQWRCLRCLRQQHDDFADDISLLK
Description: Inhibition of BACE1 expressed in human 293T cells

[3] = tested on: N2a; test: Reduction of amyloid beta40 level in mouse N2A cells expressing Swedish mutant human APP695 at 10 uM after 24 hrs by ELISA; assay type: functional; design: scale not given: the % may be the effect or the level left

| Compound | IC50 [1] [nM] | IC50 [2] [nM] | Activity [3] [%] |
| --- | --- | --- | --- |
| C[C@@H](NC(=O)c1cc2c(c(C(=O)N[C@@H](Cc3ccccc3)[C@H](O)CNC3CC3)c1)CCCCO2)c1ccccc1 | > 100000 | 89 |  |
| C[C@@H](NC(=O)c1cc(C(=O)N[C@@H](Cc2ccccc2)[C@H](O)CNC2CC2)cc(N2CCCS2(=O)=O)c1)c1ccccc1 | 141 | 1770 |  |
| C[C@@H](NC(=O)c1cc(C(=O)N[C@@H](Cc2ccccc2)[C@H](O)CNC2CC2)cc(N2CCCCS2(=O)=O)c1)c1ccccc1 | 251 | 158 |  |
| C[C@@H](NC(=O)c1cc(C(=O)N[C@@H](Cc2ccccc2)[C@H](O)CNC2CC2)cc2c1CCCCO2)c1ccc(F)cc1 | 1950 | 262 |  |
| Cc1cc2c(C(=O)N[C@@H](Cc3ccccc3)[C@H](O)CNC3CC3)cc(C(=O)N[C@H](C)c3ccccc3)cc2o1 | > 100000 | 998 |  |
| C[C@@H](NC(=O)c1cc(C(=O)N[C@@H](Cc2ccccc2)[C@H](O)CNC2CC2)cc2c1CCCO2)c1ccccc1 | > 100000 | 63 | 65 |
| C[C@@H](NC(=O)c1cc2c(c(C(=O)N[C@@H](Cc3ccccc3)[C@H](O)CNC3CC3)c1)CCCO2)c1ccccc1 | > 100000 | 112 |  |
| COc1cc(C(=O)N[C@@H](Cc2ccccc2)[C@H](O)CNC2CC2)cc(C(=O)N[C@H](C)c2ccccc2)c1 | > 100000 | 2510 |  |
| C[C@@H](NC(=O)c1cc(C(=O)N[C@@H](Cc2ccccc2)[C@H](O)CNC2CC2)cc(-c2ccc(Cl)cc2)c1)c1ccccc1 | > 100000 | 811 |  |
| C[C@@H](NC(=O)c1cc(C(=O)N[C@@H](Cc2ccccc2)[C@H](O)CNC2CC2)cc2c1CCCCO2)c1ccccc1 | > 100000 | 56 | 35 |
| Cc1cc2c(C(=O)N[C@H](C)c3ccccc3)cc(C(=O)N[C@@H](Cc3ccccc3)[C@H](O)CNC3CC3)cc2o1 | > 100000 | 524 |  |
| C[C@@H](NC(=O)c1cc(C(=O)N[C@@H](Cc2ccccc2)[C@H](O)CNC2CC2)cc2c1CCCO2)c1ccc(F)cc1 | 2090 | 740 |  |

The next lines start with results.

| IC50 [1] [nM] | IC50 [2] [nM] | Compound | Activity [3] [%] |
| --- | --- | --- | --- |
| > 100000 | 1580 | C[C@@H](NC(=O)c1cc(O)cc(C(=O)N[C@@H](Cc2ccccc2)[C@H](O)CNC2CC2)c1)c1ccccc1 |  |
| > 100000 | 1120 | C[C@@H](NC(=O)c1cc(C#Cc2ccccc2)cc(C(=O)N[C@@H](Cc2ccccc2)[C@H](O)CNC2CC2)c1)c1ccccc1 |  |
| > 100000 | 1260 | C[C@@H](NC(=O)c1cc(C(=O)N[C@@H](Cc2ccccc2)[C@H](O)CNC2CC2)cc(-c2cn(Cc3ccccc3)nn2)c1)c1ccccc1 |  |
| > 100000 | 2230 | C[C@@H](NC(=O)c1cc(C(=O)N[C@@H](Cc2ccccc2)[C@H](O)CNC2CC2)cc(-c2ccsc2)c1)c1ccccc1 |  |
| > 100000 | 889 | C#Cc1cc(C(=O)N[C@@H](Cc2ccccc2)[C@H](O)CNC2CC2)cc(C(=O)N[C@H](C)c2ccccc2)c1 |  |
